Test results taken from ChEMBL document CHEMBL4477209, “Indole-2-carboxamide-based MmpL3 Inhibitors Show Exceptional Antitubercular Activity in an Animal Model of Tuberculosis Infection” (J Med Chem, 2016).
Values after ≈ are worked out from the molar mass of the structure shown.

Legend:
[1] = system: Mycobacterium tuberculosis H37Rv; assay: Inhibition of MmpL3 TSK54R mutant in Mycobacterium tuberculosis H37Rv assessed as growth inhibition
[2] = system: Mycobacterium tuberculosis; assay: Inhibition of MmpL3 in clinical isolates of extensively drug resistant Mycobacterium tuberculosis R506 after 7 to 14 days by alamar blue assay
[3] = system: Mycobacterium tuberculosis; assay: Inhibition of MmpL3 in clinical isolates of extensively drug resistant Mycobacterium tuberculosis TF274 after 7 to 14 days by alamar blue assay
[4] = system: Mycobacterium tuberculosis; assay: Inhibition of MmpL3 in clinical isolates of isoniazid/rifampin resistant Mycobacterium tuberculosis KZN494 after 7 to 14 days by alamar blue assay
[5] = system: Mycobacterium tuberculosis; assay: Inhibition of MmpL3 in clinical isolates of isoniazid/rifampin resistant Mycobacterium tuberculosis V2475 after 7 to 14 days by alamar blue assay

SMILES | MIC [1] | MIC [2] | MIC [3] | MIC [4] | MIC [5]
C[C@@H]1[C@H]2C[C@@H](C[C@H]1NC(=O)c1cc3c(F)cc(F)cc3[nH]1)C2(C)C | 0.0625 to 0.125 µg/mL (≈ 0.188 to 0.376 µM) | 12 µM (≈ 3.99 µg/mL) | 6 µM (≈ 1.99 µg/mL) | 12 µM (≈ 3.99 µg/mL) | 47 µM (≈ 15.6 µg/mL)
C[C@@H]1[C@H]2C[C@@H](C[C@H]1NC(=O)c1cc3c(Cl)cc(Cl)cc3[nH]1)C2(C)C | – | 21 µM (≈ 7.67 µg/mL) | 21 µM (≈ 7.67 µg/mL) | 43 µM (≈ 15.7 µg/mL) | 171 µM (≈ 62.5 µg/mL)
O=C(NC1CCCCCCC1)c1cc2c(Cl)cc(Cl)cc2[nH]1 | – | 6 µM (≈ 2.04 µg/mL) | 11 µM (≈ 3.73 µg/mL) | – | 11 µM (≈ 3.73 µg/mL)
